Experimental data published in ChEMBL document CHEMBL1201862, “PubChem BioAssay data set” (2004).
Activity calls are given as the source filed them.

Legend:
Fatty acid synthase [1] = target: T1, Fatty acid synthase (Homo sapiens, UniProt P49327); experiment: FAS thioesterase domain inhibitors, dose response, biochemical, kinetic fluorescence intensity (AID 624326); type: functional;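 also: rate of fluorescence rise from hydrolysis of a fluorogenic O-methyl fluorescein ester substrate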
Fatty acid synthase [2] = target: T1, Fatty acid synthase; experiment: FAS thioesterase domain inhibitors, dose response, biochemical, endpoint fluorescence intensity, uHTS hits (AID 624327); type: functional;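 also: fluorescence from hydrolysis of an O-methyl fluorescein acyl ester substrate by the enzyme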
Protein skinhead-1 = target: T2, Protein skinhead-1 (Caenorhabditis elegans, UniProt P34707); type: functional
T2 sequence (P34707 whole entry): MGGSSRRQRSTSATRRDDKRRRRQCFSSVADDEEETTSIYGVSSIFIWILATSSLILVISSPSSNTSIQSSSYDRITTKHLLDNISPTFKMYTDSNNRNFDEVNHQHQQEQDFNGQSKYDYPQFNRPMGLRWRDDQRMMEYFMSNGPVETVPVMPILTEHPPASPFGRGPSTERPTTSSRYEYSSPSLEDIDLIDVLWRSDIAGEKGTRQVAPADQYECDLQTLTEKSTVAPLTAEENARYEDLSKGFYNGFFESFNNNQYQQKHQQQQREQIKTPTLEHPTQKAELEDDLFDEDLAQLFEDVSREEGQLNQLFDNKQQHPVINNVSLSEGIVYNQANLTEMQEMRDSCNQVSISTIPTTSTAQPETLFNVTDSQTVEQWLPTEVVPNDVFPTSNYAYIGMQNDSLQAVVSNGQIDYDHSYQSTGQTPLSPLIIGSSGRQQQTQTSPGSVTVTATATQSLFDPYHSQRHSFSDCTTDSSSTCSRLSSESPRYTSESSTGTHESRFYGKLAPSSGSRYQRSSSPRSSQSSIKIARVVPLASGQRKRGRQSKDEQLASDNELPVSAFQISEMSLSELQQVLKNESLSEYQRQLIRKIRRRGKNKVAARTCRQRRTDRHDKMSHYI

[3] = target: T3, RNA-binding protein pos-1 (Caenorhabditis elegans, UniProt G5EF15); experiment: inhibitors of POS-1/mex-3 RNA binding, dose response, biochemical, fluorescence polarization (AID 1964);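 also: purified POS-1 fused to maltose binding protein made in E. coli; potency of compounds blocking POS-1 binding to fluorescent RNA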
T3 sequence (G5EF15 whole entry): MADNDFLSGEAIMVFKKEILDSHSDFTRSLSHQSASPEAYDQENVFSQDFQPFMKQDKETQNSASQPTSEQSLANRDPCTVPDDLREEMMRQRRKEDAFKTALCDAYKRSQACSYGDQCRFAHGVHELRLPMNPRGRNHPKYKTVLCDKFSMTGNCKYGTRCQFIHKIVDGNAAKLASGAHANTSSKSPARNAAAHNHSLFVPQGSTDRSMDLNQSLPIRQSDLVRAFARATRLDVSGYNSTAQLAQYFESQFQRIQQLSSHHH

Aminopeptidase N = target: T4, Aminopeptidase N (Plasmodium falciparum FcB1/Columbia, UniProt O96935); experiment: P. falciparum M1AAP inhibitors, biochemical, fluorogenic H-Leu-NHMec substrate, 1536-well (AID 1445); design: species or system Plasmodium falciparum 3D7, 3D7
T4 sequence (O96935 whole entry): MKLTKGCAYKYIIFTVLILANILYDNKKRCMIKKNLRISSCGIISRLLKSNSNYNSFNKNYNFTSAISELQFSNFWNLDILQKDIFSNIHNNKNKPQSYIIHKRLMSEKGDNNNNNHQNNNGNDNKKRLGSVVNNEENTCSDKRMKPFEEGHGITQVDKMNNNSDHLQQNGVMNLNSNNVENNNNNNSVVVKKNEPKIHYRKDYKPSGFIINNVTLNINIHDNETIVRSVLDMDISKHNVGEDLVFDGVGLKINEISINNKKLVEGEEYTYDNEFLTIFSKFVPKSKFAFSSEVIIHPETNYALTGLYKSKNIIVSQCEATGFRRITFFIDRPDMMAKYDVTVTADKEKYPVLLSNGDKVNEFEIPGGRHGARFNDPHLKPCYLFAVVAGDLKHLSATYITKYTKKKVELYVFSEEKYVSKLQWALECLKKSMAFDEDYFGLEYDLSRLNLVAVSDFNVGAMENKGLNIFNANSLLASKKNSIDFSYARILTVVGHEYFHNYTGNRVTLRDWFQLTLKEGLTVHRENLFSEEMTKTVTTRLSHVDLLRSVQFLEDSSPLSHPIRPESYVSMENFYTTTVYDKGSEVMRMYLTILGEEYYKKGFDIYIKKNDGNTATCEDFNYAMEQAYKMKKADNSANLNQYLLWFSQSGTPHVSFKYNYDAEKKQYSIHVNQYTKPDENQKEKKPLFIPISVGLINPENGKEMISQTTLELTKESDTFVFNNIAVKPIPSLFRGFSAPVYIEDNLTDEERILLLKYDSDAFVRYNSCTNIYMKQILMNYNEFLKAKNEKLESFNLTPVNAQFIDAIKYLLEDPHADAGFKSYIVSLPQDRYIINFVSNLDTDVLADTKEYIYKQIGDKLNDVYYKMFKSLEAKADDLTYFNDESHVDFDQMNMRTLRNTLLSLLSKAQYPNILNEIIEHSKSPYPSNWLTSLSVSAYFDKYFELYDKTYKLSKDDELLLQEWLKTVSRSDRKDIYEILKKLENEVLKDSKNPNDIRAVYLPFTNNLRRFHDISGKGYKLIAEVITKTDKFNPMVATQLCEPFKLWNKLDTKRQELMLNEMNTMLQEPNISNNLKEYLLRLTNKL

[4] = target: T5, Zinc finger protein mex-5 (Caenorhabditis elegans, UniProt Q9XUB2); experiment: MEX-5/TCR-2 RNA interaction inhibitors, dose response, biochemical, C. elegans, fluorescence polarization (AID 1960)
T5 sequence (Q9XUB2 whole entry): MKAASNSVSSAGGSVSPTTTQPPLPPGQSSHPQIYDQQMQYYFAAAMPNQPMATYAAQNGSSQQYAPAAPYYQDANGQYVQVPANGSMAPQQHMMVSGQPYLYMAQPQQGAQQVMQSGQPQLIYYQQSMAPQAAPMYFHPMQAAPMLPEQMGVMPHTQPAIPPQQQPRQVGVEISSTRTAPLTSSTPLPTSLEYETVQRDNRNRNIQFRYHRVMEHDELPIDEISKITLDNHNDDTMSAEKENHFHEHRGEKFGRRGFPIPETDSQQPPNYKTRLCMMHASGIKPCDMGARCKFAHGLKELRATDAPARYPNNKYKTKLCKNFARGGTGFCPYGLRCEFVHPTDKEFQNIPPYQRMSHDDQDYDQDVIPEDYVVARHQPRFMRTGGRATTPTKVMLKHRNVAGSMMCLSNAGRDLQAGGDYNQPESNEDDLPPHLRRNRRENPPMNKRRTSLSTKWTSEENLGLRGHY

[5] = ZM109 Env clade C HIV-1 fusion inhibitors, dose response, HeLa effector, CEM target cells, luciferase, cherry-pick (AID 652058); type: functional, cell-based
[6] = inhibitors of HIV Env-driven cell fusion, dose response, cherry-pick (AID 652057); type: functional, cell-based
Cytochrome P450 2C9 = Cytochrome P450 2C9 (Homo sapiens, UniProt P11712)
[7] = inhibitors of clade B AD8 Env fusion, dose response, cell-based, cherry-pick (AID 652062); type: functional;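 also: luciferase signal from cell-cell fusion driven by HIV-1 clade B AD8 Env; potency is for inhibitors of fusion seen as a drop in luminescence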
[8] = target: T6, DNA repair and recombination protein RAD54-like (Homo sapiens, UniProt Q92698); experiment: inhibitors of human RAD54 branch migration, confirmation, biochemical, fluorescence, cherry-picked samples, dose series (AID 651657); type: functional
T6 sequence (Q92698 whole entry): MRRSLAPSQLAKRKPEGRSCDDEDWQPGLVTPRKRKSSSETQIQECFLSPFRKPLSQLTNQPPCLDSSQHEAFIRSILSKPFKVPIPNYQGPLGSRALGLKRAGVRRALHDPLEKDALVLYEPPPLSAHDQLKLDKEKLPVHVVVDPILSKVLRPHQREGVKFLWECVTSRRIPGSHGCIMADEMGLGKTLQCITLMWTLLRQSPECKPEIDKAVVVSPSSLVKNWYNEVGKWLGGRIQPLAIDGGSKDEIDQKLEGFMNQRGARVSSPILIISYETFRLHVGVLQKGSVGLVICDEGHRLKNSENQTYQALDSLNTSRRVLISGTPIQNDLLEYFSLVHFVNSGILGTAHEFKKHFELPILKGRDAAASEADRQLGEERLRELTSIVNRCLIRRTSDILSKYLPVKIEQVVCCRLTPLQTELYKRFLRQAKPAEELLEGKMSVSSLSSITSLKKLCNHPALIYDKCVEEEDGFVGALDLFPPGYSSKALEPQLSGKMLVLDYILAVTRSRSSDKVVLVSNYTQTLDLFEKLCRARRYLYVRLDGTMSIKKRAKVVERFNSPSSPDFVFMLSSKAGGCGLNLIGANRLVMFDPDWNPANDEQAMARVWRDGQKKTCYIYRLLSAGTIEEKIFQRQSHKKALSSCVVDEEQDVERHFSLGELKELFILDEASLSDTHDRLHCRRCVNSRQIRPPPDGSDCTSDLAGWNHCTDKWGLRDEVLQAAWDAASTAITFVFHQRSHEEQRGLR

[9] = target: T7, Rac GTPase-activating protein 1 (Homo sapiens, UniProt Q9H0H5); experiment: MgcRacGAP GTPase-activating activity inhibitors, confirmation, biochemical, ADP Hunter fluorescence, primary and confirmatory (AID 624330); type: functional
T7 sequence (Q9H0H5 whole entry): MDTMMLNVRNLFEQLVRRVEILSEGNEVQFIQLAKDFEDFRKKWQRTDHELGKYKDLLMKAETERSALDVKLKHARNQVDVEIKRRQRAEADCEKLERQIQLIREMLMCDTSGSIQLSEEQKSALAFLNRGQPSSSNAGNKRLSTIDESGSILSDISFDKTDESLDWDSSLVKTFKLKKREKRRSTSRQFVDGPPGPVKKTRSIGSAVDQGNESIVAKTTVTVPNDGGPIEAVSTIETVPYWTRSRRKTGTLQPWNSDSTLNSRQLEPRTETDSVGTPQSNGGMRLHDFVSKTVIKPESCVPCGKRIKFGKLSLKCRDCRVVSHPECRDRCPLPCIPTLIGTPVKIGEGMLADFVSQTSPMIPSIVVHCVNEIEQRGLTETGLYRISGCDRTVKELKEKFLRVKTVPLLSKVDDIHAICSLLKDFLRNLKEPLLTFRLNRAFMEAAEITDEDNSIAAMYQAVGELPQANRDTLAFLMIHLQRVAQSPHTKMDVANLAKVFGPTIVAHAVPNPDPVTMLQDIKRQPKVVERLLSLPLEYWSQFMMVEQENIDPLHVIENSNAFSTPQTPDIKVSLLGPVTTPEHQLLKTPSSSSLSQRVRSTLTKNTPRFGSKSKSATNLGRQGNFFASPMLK

[10] = cytotoxicity in HEK-293T cells, dose response, cytotoxicity control for BCR NF-kB inhibitor project, luminescence, B-cell screen hits (AID 489021); type: functional, cell-based;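 also: HEK-293T cells carrying an NF-kB luciferase reporter; cells exposed to compound for about 14 hours before viability readout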
[11] = target: T8, DNA repair protein RAD52 homolog (Homo sapiens, UniProt P43351); type: functional, biochemical
T8 sequence (P43351 whole entry): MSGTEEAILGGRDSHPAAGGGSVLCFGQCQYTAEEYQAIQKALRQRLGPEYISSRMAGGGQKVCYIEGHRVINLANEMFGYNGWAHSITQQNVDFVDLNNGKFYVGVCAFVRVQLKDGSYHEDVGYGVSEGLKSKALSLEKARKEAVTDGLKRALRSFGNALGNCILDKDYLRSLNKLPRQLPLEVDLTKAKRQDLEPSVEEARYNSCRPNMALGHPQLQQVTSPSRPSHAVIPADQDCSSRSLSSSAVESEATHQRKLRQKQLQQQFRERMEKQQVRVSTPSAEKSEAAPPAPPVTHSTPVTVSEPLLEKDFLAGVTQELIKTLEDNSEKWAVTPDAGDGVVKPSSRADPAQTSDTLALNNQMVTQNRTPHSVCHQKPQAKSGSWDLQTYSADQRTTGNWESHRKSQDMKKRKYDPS

T1 sequence (P49327 whole entry, the tested form may be a part): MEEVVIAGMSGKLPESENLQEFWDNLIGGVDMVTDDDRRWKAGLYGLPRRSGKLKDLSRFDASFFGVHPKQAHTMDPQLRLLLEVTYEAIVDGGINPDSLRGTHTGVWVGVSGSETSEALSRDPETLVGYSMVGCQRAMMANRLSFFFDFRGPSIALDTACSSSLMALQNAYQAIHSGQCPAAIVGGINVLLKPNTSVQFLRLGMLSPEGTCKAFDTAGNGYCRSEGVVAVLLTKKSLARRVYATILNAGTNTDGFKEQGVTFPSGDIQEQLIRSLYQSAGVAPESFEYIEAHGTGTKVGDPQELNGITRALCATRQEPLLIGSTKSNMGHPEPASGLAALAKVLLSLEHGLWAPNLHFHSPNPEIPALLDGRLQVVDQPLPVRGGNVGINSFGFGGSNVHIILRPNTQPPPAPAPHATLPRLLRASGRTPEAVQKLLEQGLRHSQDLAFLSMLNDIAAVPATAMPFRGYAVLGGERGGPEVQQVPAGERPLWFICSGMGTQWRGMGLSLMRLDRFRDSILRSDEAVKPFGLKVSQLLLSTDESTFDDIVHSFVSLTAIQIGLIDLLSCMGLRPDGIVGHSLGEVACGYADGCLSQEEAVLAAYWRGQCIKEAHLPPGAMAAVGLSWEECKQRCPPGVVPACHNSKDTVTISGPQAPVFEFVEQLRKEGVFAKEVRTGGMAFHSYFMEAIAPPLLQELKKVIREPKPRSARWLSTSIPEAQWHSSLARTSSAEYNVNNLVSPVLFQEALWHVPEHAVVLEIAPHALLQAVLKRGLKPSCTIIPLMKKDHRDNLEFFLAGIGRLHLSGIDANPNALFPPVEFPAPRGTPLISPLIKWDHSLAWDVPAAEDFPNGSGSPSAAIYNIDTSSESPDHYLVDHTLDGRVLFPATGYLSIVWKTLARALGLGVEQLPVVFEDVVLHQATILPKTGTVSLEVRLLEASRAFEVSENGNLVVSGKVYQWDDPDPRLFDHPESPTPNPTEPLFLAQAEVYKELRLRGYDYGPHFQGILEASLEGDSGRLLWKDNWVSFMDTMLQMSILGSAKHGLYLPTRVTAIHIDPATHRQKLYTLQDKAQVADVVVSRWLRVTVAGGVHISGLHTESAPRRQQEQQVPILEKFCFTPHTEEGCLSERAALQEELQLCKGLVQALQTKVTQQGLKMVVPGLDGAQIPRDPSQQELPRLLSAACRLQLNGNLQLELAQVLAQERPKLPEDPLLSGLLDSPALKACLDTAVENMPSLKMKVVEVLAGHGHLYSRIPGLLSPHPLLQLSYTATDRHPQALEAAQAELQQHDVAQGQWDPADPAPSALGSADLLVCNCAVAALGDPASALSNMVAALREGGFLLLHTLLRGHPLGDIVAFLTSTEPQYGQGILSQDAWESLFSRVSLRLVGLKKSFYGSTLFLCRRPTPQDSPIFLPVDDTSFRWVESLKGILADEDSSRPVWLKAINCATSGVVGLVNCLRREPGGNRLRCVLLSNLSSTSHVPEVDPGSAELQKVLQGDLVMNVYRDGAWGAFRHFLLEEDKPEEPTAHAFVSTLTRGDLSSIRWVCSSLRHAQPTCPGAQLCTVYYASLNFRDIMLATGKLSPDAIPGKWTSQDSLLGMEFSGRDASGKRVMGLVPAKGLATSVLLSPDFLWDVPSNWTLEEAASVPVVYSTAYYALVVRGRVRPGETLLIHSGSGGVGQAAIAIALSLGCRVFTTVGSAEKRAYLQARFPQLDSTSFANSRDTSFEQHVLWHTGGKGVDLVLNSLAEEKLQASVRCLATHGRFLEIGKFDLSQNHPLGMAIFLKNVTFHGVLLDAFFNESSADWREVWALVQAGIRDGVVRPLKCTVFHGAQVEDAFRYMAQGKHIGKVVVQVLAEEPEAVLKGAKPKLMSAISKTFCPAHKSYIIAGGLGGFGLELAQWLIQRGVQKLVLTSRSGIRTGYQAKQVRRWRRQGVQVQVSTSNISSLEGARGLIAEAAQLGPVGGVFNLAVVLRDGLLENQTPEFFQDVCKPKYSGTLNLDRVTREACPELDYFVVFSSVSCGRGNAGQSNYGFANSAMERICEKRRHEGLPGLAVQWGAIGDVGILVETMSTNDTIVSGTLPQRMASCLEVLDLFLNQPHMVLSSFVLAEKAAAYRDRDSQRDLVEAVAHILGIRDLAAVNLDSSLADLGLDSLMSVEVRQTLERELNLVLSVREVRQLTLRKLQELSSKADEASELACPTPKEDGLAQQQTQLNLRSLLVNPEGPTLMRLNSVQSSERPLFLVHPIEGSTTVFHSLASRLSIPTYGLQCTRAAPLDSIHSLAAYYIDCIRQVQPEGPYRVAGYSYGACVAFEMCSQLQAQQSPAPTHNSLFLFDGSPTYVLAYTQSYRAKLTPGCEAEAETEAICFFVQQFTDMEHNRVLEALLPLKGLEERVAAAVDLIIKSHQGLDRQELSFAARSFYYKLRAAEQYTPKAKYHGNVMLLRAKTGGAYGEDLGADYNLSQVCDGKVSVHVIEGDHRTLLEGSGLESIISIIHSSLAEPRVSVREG
Cytochrome P450 2C9, sequence (P11712 whole entry, the tested form may be a part): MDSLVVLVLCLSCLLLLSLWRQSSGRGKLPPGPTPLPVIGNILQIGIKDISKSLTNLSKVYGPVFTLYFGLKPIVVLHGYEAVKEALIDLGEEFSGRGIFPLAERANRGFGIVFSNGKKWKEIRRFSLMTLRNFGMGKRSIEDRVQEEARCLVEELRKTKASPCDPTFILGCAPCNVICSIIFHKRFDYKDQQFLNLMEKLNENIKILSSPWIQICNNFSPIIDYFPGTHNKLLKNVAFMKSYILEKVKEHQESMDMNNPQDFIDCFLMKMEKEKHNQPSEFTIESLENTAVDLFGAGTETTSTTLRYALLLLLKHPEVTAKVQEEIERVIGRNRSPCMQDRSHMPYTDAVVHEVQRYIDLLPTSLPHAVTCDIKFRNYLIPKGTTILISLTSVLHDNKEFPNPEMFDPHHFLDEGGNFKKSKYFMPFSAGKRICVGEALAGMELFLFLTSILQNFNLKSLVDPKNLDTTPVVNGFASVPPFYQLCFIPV

| IC50 (Fatty acid synthase [1]) | IC50 (Fatty acid synthase [2]) | IC50 (Protein skinhead-1) | Structure (SMILES) | further results |
| --- | --- | --- | --- | --- |
| 7.55 µM (active) | 16.8 µM (active) |  | O=C(N/C(=C/c1ccccc1)C(=O)N1CCOCC1)c1ccc([N+](=O)[O-])cc1 |  |
| 8.73 µM (active) | 12.9 µM (active) |  | O=C(CCC(=O)Nc1ccc(Br)cc1)N/N=C/c1cc([N+](=O)[O-])ccc1O |  |
|  |  | > 100 µM (inactive) | Cc1cccc(C)c1OCC(=O)Nc1nnc(C2CCCO2)s1 (centres undefined) |  |
| 4.11 µM (active) | 0.87 µM (active) |  | CN(C)CCCNC(=O)/C(=C\C=C\c1ccccc1)NC(=O)c1ccc([N+](=O)[O-])cc1 |  |
|  |  | > 100 µM (inactive) | Nc1sccc1C(=O)NCc1ccccc1 |  |
|  |  |  | CN1C(=O)S/C(=C/c2cccn2-c2cccc(C(=O)O)c2)C1=O | EC50 [3]: > 300 µM (not active); IC50 (Aminopeptidase N): 84.3 µM (active); EC50 [4]: > 300 µM (not active) |
|  |  |  | C[C@H](CO)N1C[C@H](C)[C@@H](CN(C)Cc2ccncc2)Oc2cc(C3=CCCCC3)ccc2S1(=O)=O | AC50 [5]: 12.3 µM (active); AC50 [6]: 13.4 µM (active) |
| 13.5 µM (active) | 8.07 µM (active) |  | CN(Cc1ccccc1)C(=O)COC(=O)c1cc(Cl)nc(Cl)c1 |  |
|  |  | > 100 µM (inactive) | CC(CCc1ccco1)NC(=O)CSc1cc(=O)n(C)c2ccccc12 (centres undefined) |  |
|  |  | 36.4 µM (active) | Clc1ccc(Cc2nc(-c3cccnc3)no2)cc1 | AC50 (Cytochrome P450 2C9): 28.2 µM (inconclusive) |
|  |  |  | COc1ccc(N2CCn3c2nc2c3c(=O)n(CCCc3ccccc3)c(=O)n2C)c(OC)c1 | AC50 [5]: 0.572 µM (active); AC50 [7]: 5.71 µM (active) |
|  |  |  | Oc1ccc(Nc2ccnc3cc(Cl)ccc23)cc1 | AC50 [8]: 80.3 µM (active); IC50 [9]: 28.1 µM (active) |
|  |  | > 100 µM (inactive) | CCN(CCCNC(=O)CC(C(=O)N1CCc2ccccc21)n1ccnc1)c1cccc(C)c1 (centres undefined) |  |
| 2.1 µM (active) | 2.92 µM (active) |  | COc1ccc(NC(=O)COC(=O)c2cc([N+](=O)[O-])ccc2N2CCOCC2)cc1 |  |
| 8.98 µM (active) | 8.17 µM (active) |  | O=C(COC(=O)c1cc([N+](=O)[O-])ccc1NCCO)c1ccccc1 |  |
|  |  |  | NC(=O)C1CCN(C(=O)COc2ccc3ccccc3c2Br)CC1 | IC50 [10]: > 80 µM (inactive) |
|  |  | > 100 µM (inactive) | O=[N+]([O-])c1ccc(N2CCc3ccccc3C2)cc1 |  |
|  |  | 89.2 µM (inactive) | Cc1cccnc1Nc1nc(-c2ccc(F)cc2)cs1 |  |
|  |  |  | CCN(CC)CCn1c2ccc(Cl)cc2c2nc(C)sc21 | AC50 [11]: 5.39 µM (active); AC50 [8]: 22.1 µM (active) |
|  |  |  | CCCCN(CC)CCCNC(=S)Nc1ccc2nc(N3CCN(C)CC3)cc(C)c2c1 | AC50 [11]: 1.95 µM (active); AC50 [8]: 30.8 µM (active) |
